Reference: PubChem BioAssay (NCI)
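Test compounds were applied to cells in 96-well plates for 48 hours at 5 doses. GI50: concentration for 50% inhibition of growth. TGI: concentration producing complete growth inhibition.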

Experiments:
Experiment in all cases: NCI-60 cell line screen, 48 h
MCF7 breast = tested on: MCF7 breast
M14 melanoma = tested on: M14 melanoma
HOP-92 NSCLC = tested on: HOP-92 NSCLC
RPMI-8226 leukemia = tested on: RPMI-8226 leukemia
HCT-15 colon = tested on: HCT-15 colon
EKVX NSCLC = tested on: EKVX NSCLC
SK-MEL-2 melanoma = tested on: SK-MEL-2 melanoma
UACC-257 melanoma = tested on: UACC-257 melanoma
BT-549 breast = tested on: BT-549 breast
MOLT-4 leukemia = tested on: MOLT-4 leukemia
SF-539 CNS = tested on: SF-539 CNS
UACC-62 melanoma = tested on: UACC-62 melanoma
DU-145 prostate = tested on: DU-145 prostate
OVCAR-3 ovarian = tested on: OVCAR-3 ovarian
HL-60(TB) leukemia = tested on: HL-60(TB) leukemia
HS 578T breast = tested on: HS 578T breast
HT29 colon = tested on: HT29 colon
SNB-19 CNS = tested on: SNB-19 CNS
U251 CNS = tested on: U251 CNS
NCI-H226 lung = tested on: NCI-H226 lung
IGROV1 ovarian = tested on: IGROV1 ovarian
T-47D breast = tested on: T-47D breast
KM12 colon = tested on: KM12 colon
NCI-H23 lung = tested on: NCI-H23 lung
786-0 renal = tested on: 786-0 renal
SNB-75 CNS = tested on: SNB-75 CNS
SR leukemia = tested on: SR leukemia
SK-MEL-28 melanoma = tested on: SK-MEL-28 melanoma
PC-3 prostate = tested on: PC-3 prostate
SW-620 colon = tested on: SW-620 colon
CAKI-1 renal = tested on: CAKI-1 renal
LOX IMVI melanoma = tested on: LOX IMVI melanoma
HCC-2998 colon = tested on: HCC-2998 colon
MALME-3M melanoma = tested on: MALME-3M melanoma
NCI-H522 lung = tested on: NCI-H522 lung
K-562 leukemia = tested on: K-562 leukemia
A549 NSCLC = tested on: A549 NSCLC
OVCAR-4 ovarian = tested on: OVCAR-4 ovarian
HOP-62 NSCLC = tested on: HOP-62 NSCLC
MDA-MB-468 breast = tested on: MDA-MB-468 breast
OVCAR-5 ovarian = tested on: OVCAR-5 ovarian
MDA-MB-435 = tested on: MDA-MB-435
OVCAR-8 ovarian = tested on: OVCAR-8 ovarian
RXF 393 renal = tested on: RXF 393 renal
SF-295 CNS = tested on: SF-295 CNS
UO-31 renal = tested on: UO-31 renal
HCT-116 colon = tested on: HCT-116 colon
CCRF-CEM leukemia = tested on: CCRF-CEM leukemia
A498 renal = tested on: A498 renal
SK-OV-3 ovarian = tested on: SK-OV-3 ovarian
SK-MEL-5 melanoma = tested on: SK-MEL-5 melanoma
ACHN renal = tested on: ACHN renal
TK-10 renal = tested on: TK-10 renal
MDA-MB-231 breast = tested on: MDA-MB-231 breast
COLO 205 colon = tested on: COLO 205 colon
SF-268 CNS = tested on: SF-268 CNS
NCI-H460 lung = tested on: NCI-H460 lung

SMILES: N#C[Se]CC(=O)Nc1cccc(C(F)(F)F)c1
- GI50 (MCF7 breast): 2.72 µM
- TGI (MCF7 breast): 20 µM
- GI50 (M14 melanoma): 1.9 µM
- TGI (M14 melanoma): 5.02 µM
- GI50 (HOP-92 NSCLC): 1.84 µM
- TGI (HOP-92 NSCLC): 3.63 µM
- GI50 (RPMI-8226 leukemia): 18.3 µM
- TGI (RPMI-8226 leukemia): 86.7 µM
- GI50 (HCT-15 colon): 1.72 µM
- TGI (HCT-15 colon): 3.31 µM
- GI50 (EKVX NSCLC): 1.46 µM
- TGI (EKVX NSCLC): 2.94 µM
- GI50 (SK-MEL-2 melanoma): 9.03 µM
- TGI (SK-MEL-2 melanoma): 47.8 µM
- GI50 (UACC-257 melanoma): 3.1 µM
- TGI (UACC-257 melanoma): 19.9 µM
- GI50 (BT-549 breast): 1.57 µM
- TGI (BT-549 breast): 3.05 µM
- GI50 (MOLT-4 leukemia): 3.77 µM
- TGI (MOLT-4 leukemia): 26.2 µM
- GI50 (SF-539 CNS): 1.78 µM
- TGI (SF-539 CNS): 3.25 µM
- GI50 (UACC-62 melanoma): 1.73 µM
- TGI (UACC-62 melanoma): 4.33 µM
- GI50 (DU-145 prostate): 1.9 µM
- TGI (DU-145 prostate): 4.32 µM
- GI50 (OVCAR-3 ovarian): 2.33 µM
- TGI (OVCAR-3 ovarian): 7.21 µM
- GI50 (HL-60(TB) leukemia): 2.22 µM
- TGI (HL-60(TB) leukemia): 6.31 µM
- GI50 (HS 578T breast): 2.46 µM
- TGI (HS 578T breast): 9.3 µM
- GI50 (HT29 colon): 3.66 µM
- TGI (HT29 colon): 15.2 µM
- GI50 (SNB-19 CNS): 1.86 µM
- TGI (SNB-19 CNS): 4.08 µM
- GI50 (U251 CNS): 2.13 µM
- TGI (U251 CNS): 5.52 µM
- GI50 (NCI-H226 lung): 1.78 µM
- TGI (NCI-H226 lung): 4.74 µM
- GI50 (IGROV1 ovarian): 1.55 µM
- TGI (IGROV1 ovarian): 3.57 µM
- GI50 (T-47D breast): 6.48 µM
- TGI (T-47D breast): 86.6 µM
- GI50 (KM12 colon): 6.87 µM
- TGI (KM12 colon): 33.8 µM
- GI50 (NCI-H23 lung): 2.25 µM
- TGI (NCI-H23 lung): 5.59 µM
- GI50 (786-0 renal): 2.25 µM
- TGI (786-0 renal): 4.92 µM
- GI50 (SNB-75 CNS): 1.72 µM
- TGI (SNB-75 CNS): 5.26 µM
- GI50 (SR leukemia): 5.35 µM
- TGI (SR leukemia): > 100 µM
- GI50 (SK-MEL-28 melanoma): 2.01 µM
- TGI (SK-MEL-28 melanoma): 5.07 µM
- GI50 (PC-3 prostate): 5.77 µM
- TGI (PC-3 prostate): 31 µM
- GI50 (SW-620 colon): 2.41 µM
- TGI (SW-620 colon): 5.55 µM
- GI50 (CAKI-1 renal): 2.23 µM
- TGI (CAKI-1 renal): 4.77 µM
- GI50 (LOX IMVI melanoma): 1.49 µM
- TGI (LOX IMVI melanoma): 3.21 µM
- GI50 (HCC-2998 colon): 13.7 µM
- TGI (HCC-2998 colon): 29.5 µM
- GI50 (MALME-3M melanoma): 1.51 µM
- TGI (MALME-3M melanoma): 3.24 µM
- GI50 (NCI-H522 lung): 3.62 µM
- TGI (NCI-H522 lung): 14.5 µM
- GI50 (K-562 leukemia): 6.02 µM
- TGI (K-562 leukemia): > 100 µM
- GI50 (A549 NSCLC): 1.87 µM
- TGI (A549 NSCLC): 4.27 µM
- GI50 (OVCAR-4 ovarian): 5.93 µM
- TGI (OVCAR-4 ovarian): 62 µM
- GI50 (HOP-62 NSCLC): 3.41 µM
- TGI (HOP-62 NSCLC): 9.67 µM
- GI50 (MDA-MB-468 breast): 1.71 µM
- TGI (MDA-MB-468 breast): 3.44 µM
- GI50 (OVCAR-5 ovarian): 2.69 µM
- TGI (OVCAR-5 ovarian): 7.17 µM
- GI50 (MDA-MB-435): 1.95 µM
- TGI (MDA-MB-435): 4.35 µM
- GI50 (OVCAR-8 ovarian): 2.01 µM
- TGI (OVCAR-8 ovarian): 4.48 µM
- GI50 (RXF 393 renal): 2.37 µM
- TGI (RXF 393 renal): 6.01 µM
- GI50 (SF-295 CNS): 2.04 µM
- TGI (SF-295 CNS): 4.1 µM
- GI50 (UO-31 renal): 1.3 µM
- TGI (UO-31 renal): 2.65 µM
- GI50 (HCT-116 colon): 1.92 µM
- TGI (HCT-116 colon): 4.16 µM
- GI50 (CCRF-CEM leukemia): 4.34 µM
- TGI (CCRF-CEM leukemia): 34.6 µM
- GI50 (A498 renal): 3.95 µM
- TGI (A498 renal): 17.7 µM
- GI50 (SK-OV-3 ovarian): 8.34 µM
- TGI (SK-OV-3 ovarian): 31.9 µM
- GI50 (SK-MEL-5 melanoma): 1.19 µM
- TGI (SK-MEL-5 melanoma): 2.78 µM
- GI50 (ACHN renal): 3.29 µM
- TGI (ACHN renal): 9.98 µM
- GI50 (TK-10 renal): 2.55 µM
- TGI (TK-10 renal): 6.79 µM
- GI50 (MDA-MB-231 breast): 1.85 µM
- TGI (MDA-MB-231 breast): 3.67 µM
- GI50 (COLO 205 colon): 10.1 µM
- TGI (COLO 205 colon): 24.3 µM
- GI50 (SF-268 CNS): 3.16 µM
- TGI (SF-268 CNS): 12.2 µM
- GI50 (NCI-H460 lung): 2.47 µM
- TGI (NCI-H460 lung): 9.83 µM
